Results reported in patent publication US5218126A, “Halogen substituted mitomycin derivatives” (Kyowa Hakko Kogyo Co., Ltd., priority 1990, dated 1993).

What was measured:
[1] = test system: HeLa S3 cells; assay: Growth Inhibition Test on HeLa S3 Cells; format: cell-based; conditions: Homo sapiens, 1 hour exposure, then 72 hours incubation at 37° C., Neutral Red staining, read-out: IC50 (concentration which inhibits cell growth by 50%)
Method: Growth Inhibition Test on HeLa S3 Cells
HeLa S3 cells were suspended in an MEM medium containing 10% fetal calf serum and 2 mM glutamine at a concentration of 3×10^4 cells/ml, and 0.1 ml of the cell suspension was put into each well of a 96-well microtiter plate.
After culturing at 37° C. overnight in a carbon dioxide gas incubator, 0.05 ml of a test sample appropriately diluted with the medium was added to each well. The cells were further cultured for one hour in the carbon dioxide gas incubator and the culture supernatant was removed. The residue was washed once with a phosphate buffer saline [PBS(-)] and 0.1 ml of a fresh medium was added to each well, and the cells were further incubated at 37° C. for 72 hours in the carbon dioxide gas incubator. After removal of the supernatant, 0.1 ml of culture medium containing 0.02% Neutral Red was added to each well, and the cells were further incubated at 37° C. for one hour in the carbon dioxide gas incubator to stain the cells. After removal of the culture supernatant, each well was washed once with a physiological saline, and the dye was extracted with 0.001N HCl/30% methanol. Absorbance of the extract at 550 nm was measured with a microplate reader. The cell growth inhibition percentage was calculated according to the following formula from the absorbance of the extract of the cells treated with the test compound in various concentrations and that of intact cells. [formula]
From the cell growth inhibition percentage thus obtained, the concentration of the test compound which inhibits cell growth by 50% (IC50) was determined.

[2] = test system: Sarcoma 180 solid tumor; assay: Anti-tumor Activity to Sarcoma 180 Solid Tumor; format: in vivo; conditions: Mus musculus, iv, 168 h; male ddY mice, s.c. Sarcoma 180, single i.v. injection 24 hours after implantation, tumor volume at 7 days; read-out: ED50 (dose showing T/C=0.5)
Method: Anti-tumor Activity to Sarcoma 180 Solid Tumor
5×10^6 Sarcoma 180 cells were abdominally implanted into a ddY mouse and the cells were collected from the ascites of the mouse 7 days after the implantation. The cells were washed once with a sterilized physiological saline solution and then suspended in a sterilized physiological saline solution to prepare a cell suspension of 5×10^7 cells/ml. 0.1 ml of the cell suspension was subcutaneously implanted into the right axiallary space of male ddY mice weighting 20±2 g.
A test compound was dissolved in a physiological saline solution or a Tween 80-containing physiological saline solution, and 0.1 to 0.2 ml of the solution was intravenously injected to five mice as one group 24 hours after the implatation of the tumor cells.
The anti-tumor activity of the test compound was determined by measuring the major diameter (a) and the minor diameter (b) of the tumor 7 days after the implantation of tumor cells, and the value of (a×b^2 /2), which corresponds to the volume of the tumor, was calculated. The intended anti-tumor activity is represented by a ratio of T/C, in which C indicates the tumor volume of mice of the control group to which no test compound was administered and T indicates the tumor volume of mice of the test group to which the test compound was administered. T/C at each dose given was plotted in a graph in which T/C is shown by an ordinary scale on the vertical axis and a dose is shown by a logarithmic scale on the horizontal axis. The relation between the dose and T/C was determined to be a straight line by the least-squares method. From the regression formula of the straight line thus obtained, the dose of showing T/C=0.5 is calculated to give ED50.

[3] = Acute Toxicity; conditions: mouse, in vivo, iv; ddY mice, single i.v. injection, 14 days observation, Behrens Kaerber's method
Method: A test compound was intravenously injected once to five ddY mice as one group. […] LD50 was calculated from the death rate of each group according to the Behrens Kaerber's method.

Compound | IC50 [1] | ED50 [2] | LD50 at 336 h [3]
CO[C@@]12[C@H](COC(N)=O)C3=C(C(=O)C(Br)=C(N)C3=O)N1C[C@@H]1N[C@@H]12 [Compound 8, 6-bromo-6-demethylmitomycin C] | 720 nM | 1.6 mg/kg | 3.2 mg/kg
CO[C@@]12[C@H](COC(N)=O)C3=C(C(=O)C=C(N)C3=O)N1C[C@@H]1N[C@@H]12 [Compound 3, 6-demethylmitomycin C] | 2200 nM | 2.6 mg/kg | 9.7 mg/kg
CO[C@@]12[C@H](COC(N)=O)C3=C(C(=O)C=C(N)C3=O)N1C[C@H]1[C@@H]2N1C (stereo partly shown) [Compound 6, 6-demethylporfiromycin] | 7300 nM | 8.4 mg/kg | 18 mg/kg
CO[C@@]12[C@H](COC(N)=O)C3=C(C(=O)C(Cl)=C(N)C3=O)N1C[C@@H]1N[C@@H]12 [Compound 7, 6-chloro-6-demethylmitomycin C] | 550 nM | – | –
COC1=CC(=O)C2=C(C1=O)[C@@H](COC(N)=O)[C@@]1(OC)[C@@H]3[C@H](CN21)N3C (stereo partly shown) [Compound 5, 6-demethylmitomycin F] | 130 nM | 7.1 mg/kg | 26 mg/kg
CN1[C@H]2[C@@H]1CN1C3=C(C(=O)C(N)=CC3=O)[C@H](COC(N)=O)[C@@]21O (stereo partly shown) [Compound 4, 6-demethylmitomycin D] | > 31000 nM | 33 mg/kg | > 100 mg/kg
COC1=CC(=O)C2=C(C1=O)[C@@H](COC(N)=O)[C@@]1(OC)[C@H]3N[C@H]3CN21 [Compound 1, 6-demethylmitomycin A] | 210 nM | 1.6 mg/kg | 2.8 mg/kg
COC1=CC(=O)C2=C(C1=O)[C@H](COC(N)=O)[C@@]1(O)[C@@H]3[C@H](CN21)N3C (stereo partly shown) [Compound 2, 6-demethylmitomycin B] | > 10000 nM | 11 mg/kg | > 20 mg/kg
